From patent US5496830A (Johns Hopkins University, priority 1994, dated 1996)
Like-named read-outs stand apart in the source and are kept apart here.

Legend:
[1] = test system: T. brucei brucei (MiTat 1.2, strain 427, variant 221); experiment: In vitro inhibition of blood stream form trypanosomes, acid phosphatase detection of survivors; type: cell-based; conditions: Trypanosoma brucei, read-out: Trypanosome EC50
Experimental: Camptothecin compounds were tested against blood stream form trypanosomes in vitro. T. brucei brucei (MiTat 1.2, strain 427, variant 221) were cultured at 37° C. according to the methods of Carruthers and Cross (Carruthers, V. B., and Cross, G. A. M. (1992) Proc. Natl. Acad. Sci. USA., 89:8818-8821) with the substitution of phenol red-free Iscoves Modified Dulbecco's Medium (Mediatech, Inc.) in the HMI-9 culture medium. […] Exponentially growing trypanosomes were diluted to 10^5 cells/ml with prewarmed medium.
The plate was incubated at 37° C. for 24 h in a humidified incubator maintained with 5% CO2.
Surviving trypanosomes were detected by the acid phosphatase method (Martin, A. and Clynes, M. (1991) In Vitro Cell. Dev. Biol. 27A:183-184). p-Nitrophenol phosphate (20 μl of 20 mg/ml; solubilized in 1 M sodium acetate, pH 5.5; 1% Triton X-100) was added to each 200 μl sample and mixed. The plate was then incubated for 3-4 h at 37° C. The production of p-nitrophenol was measured at 405 nm on a microplate reader (UVmax kinetic microplate reader, Molecular Devices). Quadruplicate values were averaged and blanks (complete reaction mixture without trypanosomes) were subtracted for each drug concentration.

topoisomerase I [2] = target: T1, topoisomerase I (Homo sapiens, UniProt P11387); experiment: Topoisomerase I inhibition relative to 20(S)-camptothecin (separate independent experiments); type: biochemical; conditions: T1 relative to 20(S)CPT
T1 sequence (P11387 1-765): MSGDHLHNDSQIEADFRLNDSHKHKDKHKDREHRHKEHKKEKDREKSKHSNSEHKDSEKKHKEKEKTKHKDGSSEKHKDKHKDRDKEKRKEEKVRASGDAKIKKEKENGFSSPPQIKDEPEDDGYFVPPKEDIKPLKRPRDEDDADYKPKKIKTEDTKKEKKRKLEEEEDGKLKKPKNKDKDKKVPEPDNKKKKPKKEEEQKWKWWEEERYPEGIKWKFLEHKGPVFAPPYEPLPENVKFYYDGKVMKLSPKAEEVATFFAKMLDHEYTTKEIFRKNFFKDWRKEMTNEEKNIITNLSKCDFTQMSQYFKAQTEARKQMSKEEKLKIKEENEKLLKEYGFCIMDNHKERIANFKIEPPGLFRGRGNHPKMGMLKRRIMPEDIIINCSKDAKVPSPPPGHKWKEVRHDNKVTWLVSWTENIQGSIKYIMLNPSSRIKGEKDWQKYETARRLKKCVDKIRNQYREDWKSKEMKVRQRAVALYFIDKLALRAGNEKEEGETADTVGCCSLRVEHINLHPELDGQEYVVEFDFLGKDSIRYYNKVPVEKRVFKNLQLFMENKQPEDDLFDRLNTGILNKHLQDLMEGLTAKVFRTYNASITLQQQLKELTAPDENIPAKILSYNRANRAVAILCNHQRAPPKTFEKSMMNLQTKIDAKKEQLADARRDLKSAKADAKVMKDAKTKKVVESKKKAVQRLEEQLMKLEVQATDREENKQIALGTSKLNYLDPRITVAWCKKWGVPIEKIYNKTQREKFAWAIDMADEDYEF

topoisomerase I [3] = target: T2, topoisomerase I (Bos taurus, UniProt F1MN93); experiment: Topoisomerase I inhibition by the cleavable complex assay of Hsiang et al.; type: biochemical; conditions: for T-1 Inhibition IC50: cleavable complex assay of Hsiang et al.
T2 sequence (F1MN93 1-767): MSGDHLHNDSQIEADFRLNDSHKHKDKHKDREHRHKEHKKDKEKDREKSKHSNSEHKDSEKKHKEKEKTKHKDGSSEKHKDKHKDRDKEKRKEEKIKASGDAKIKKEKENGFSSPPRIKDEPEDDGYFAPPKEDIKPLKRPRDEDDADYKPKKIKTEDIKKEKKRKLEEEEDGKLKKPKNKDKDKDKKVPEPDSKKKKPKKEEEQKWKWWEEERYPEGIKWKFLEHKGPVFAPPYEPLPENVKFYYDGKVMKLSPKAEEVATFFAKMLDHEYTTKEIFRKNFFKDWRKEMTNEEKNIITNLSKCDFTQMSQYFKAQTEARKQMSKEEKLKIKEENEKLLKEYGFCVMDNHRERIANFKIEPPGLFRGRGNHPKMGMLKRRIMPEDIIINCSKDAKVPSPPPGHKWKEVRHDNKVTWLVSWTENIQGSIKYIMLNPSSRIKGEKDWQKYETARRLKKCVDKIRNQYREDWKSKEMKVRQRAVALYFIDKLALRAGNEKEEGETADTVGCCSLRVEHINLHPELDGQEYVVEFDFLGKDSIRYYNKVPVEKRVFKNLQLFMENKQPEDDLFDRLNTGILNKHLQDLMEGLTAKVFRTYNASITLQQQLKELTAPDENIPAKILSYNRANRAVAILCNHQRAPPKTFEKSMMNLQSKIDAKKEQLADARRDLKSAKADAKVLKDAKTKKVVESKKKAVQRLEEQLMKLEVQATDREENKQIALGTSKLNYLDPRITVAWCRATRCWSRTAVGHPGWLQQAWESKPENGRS

[4] = blood stream form T. brucei, 24 h at 37° C., acid phosphatase method

CCC1(OC(=O)CN)C(=O)OCc2c1cc1n(c2=O)Cc2cc3cc4c(cc3nc2-1)OCO4 (racemic) [10,11-MD-20-Glycinate-20(RS)-CPT]
EC50 [1, 4]: 920 nM

CCc1c2c(nc3cccc(N)c13)-c1cc3c(c(=O)n1C2)COC(=O)[C@]3(O)CC [7-Ethyl-9-amino-20(S)-CPT, 7-ethyl-9-amino-20(S)-camptothecin]
Relative Potency T-1 Inhibition (topoisomerase I [2]): 5 | EC50 ([1]; 24 h): 910 nM

CCc1c2c(nc3cccc([N+](=O)[O-])c13)-c1cc3c(c(=O)n1C2)COC(=O)[C@]3(O)CC [7-Ethyl-9-nitro-20(S)-CPT, 7-ethyl-9-nitro-20(S)-camptothecin]
Relative Potency T-1 Inhibition (topoisomerase I [2]): 4 | EC50 ([1]; 24 h): 2670 nM

CCc1c2c(nc3cc4c(cc13)OCO4)-c1cc3c(c(=O)n1C2)COC(=O)[C@]3(O)CC [7-Ethyl-10,11-methylenedioxy-20(S)-CPT, 7-ethyl-10,11-methylenedioxy-20(S)-camptothecin]
Relative Potency T-1 Inhibition (topoisomerase I [2]): 12 | EC50 ([1]; 24 h): 60 nM

CCc1c2c(nc3ccc(N)cc13)-c1cc3c(c(=O)n1C2)COC(=O)[C@]3(O)CC [7-Ethyl-10-amino-20(S)-CPT, 7-ethyl-10-amino-20(S)-camptothecin]
Relative Potency T-1 Inhibition (topoisomerase I [2]): 5 | EC50 ([1]; 24 h): 620 nM

CCc1c2c(nc3ccc([N+](=O)[O-])cc13)-c1cc3c(c(=O)n1C2)COC(=O)[C@]3(O)CC [7-Ethyl-10-nitro-20(S)-CPT, 7-ethyl-10-nitro-20(S)-camptothecin]
Relative Potency T-1 Inhibition (topoisomerase I [2]): 4 | EC50 ([1]; 24 h): 600 nM

CCc1c2c(nc3ccccc13)-c1cc3c(c(=O)n1C2)COC(=O)[C@]3(O)CC [7-Ethyl-20(S)-CPT, 7-ethyl-20(S)-camptothecin]
Relative Potency T-1 Inhibition (topoisomerase I [2]): 3 | EC50 ([1]; 24 h): 770 nM

CC[C@@]1(O)C(=O)OCc2c1cc1n(c2=O)Cc2c-1nc1cc3c(cc1c2C)OCO3 [7-Methyl-10,11-methylenedioxy-20(S)-CPT, 7-methyl-10,11-methylenedioxy-20(S)-camptothecin]
Relative Potency T-1 Inhibition (topoisomerase I [2]): 5 | EC50 ([1]; 24 h): 40 nM

CCCc1c2c(nc3ccccc13)-c1cc3c(c(=O)n1C2)COC(=O)[C@]3(O)CC [7-Propyl-20(S)-CPT, 7-propyl-20(S)-camptothecin]
Relative Potency T-1 Inhibition (topoisomerase I [2]): 2 | EC50 ([1]; 24 h): 770 nM

CCc1c2c(nc3cc4c(c(N)c13)OCO4)-c1cc3c(c(=O)n1C2)COC(=O)[C@]3(O)CC [7-ethyl-9-amino-10,11-methylenedioxy-20(S)-camptothecin]
Relative Potency T-1 Inhibition (topoisomerase I [2]): 10 | EC50 ([1]; 24 h): 60 nM

CCc1c2c(nc3cc4c(c([N+](=O)[O-])c13)OCO4)-c1cc3c(c(=O)n1C2)COC(=O)[C@]3(O)CC [7-ethyl-9-nitro-10,11-methylenedioxy-20(S)-camptothecin]
Relative Potency T-1 Inhibition (topoisomerase I [2]): 5 | EC50 ([1]; 24 h): 210 nM

CC[C@@]1(O)C(=O)OCc2c1cc1n(c2=O)Cc2cc3c(N)c4c(cc3nc2-1)OCO4 [9-Amino-10,11-MD-20(S)-CPT, 9-amino-10,11-methylenedioxy-20(S)-camptothecin]
IC50 (topoisomerase I [3]): 50 nM | EC50 ([1]; 24 h): 180 nM

CC[C@@]1(O)C(=O)OCc2c1cc1n(c2=O)Cc2cc3c(N)cccc3nc2-1 [9-Amino-20(S)-CPT, 9-amino-20(S)-camptothecin]
Relative Potency T-1 Inhibition (topoisomerase I [2]): 2 | EC50 [1, 4]: 870 nM

CC[C@@]1(O)C(=O)OCc2c1cc1n(c2=O)Cc2cc3c(Cl)cccc3nc2-1 [9-Chloro-20(S)-CPT, 9-chloro-20(S)-camptothecin]
IC50 (topoisomerase I [3]): 90 nM | EC50 ([1]; 24 h): 890 nM

CC[C@@]1(O)C(=O)OCc2c1cc1n(c2=O)Cc2cc3c([N+](=O)[O-])c4c(cc3nc2-1)OCO4 [9-Nitro-10,11-methylenedioxy-20(S)-CPT]
Relative Potency T-1 Inhibition (topoisomerase I [2]): 3 | EC50 ([1]; 24 h): 400 nM

CC[C@@]1(O)C(=O)OCc2c1cc1n(c2=O)Cc2cc3c([N+](=O)[O-])cccc3nc2-1 [9-Nitro-20(S)-CPT]
EC50 [1, 4]: 1640 nM

CC[C@@]1(O)C(=O)OCc2c1cc1n(c2=O)Cc2cc3cc4c(cc3nc2-1)OCO4 [10,11-MD-20(S)-CPT, 10,11-methylenedioxy-20(S)-camptothecin]
IC50 (topoisomerase I [3]): 30 nM | Relative Potency T-1 Inhibition (topoisomerase I [2]): 10 | EC50 ([1]; 24 h): 210 nM

CC[C@@]1(O)C(=O)OCc2c1cc1n(c2=O)Cc2cc3cc(N)ccc3nc2-1 [10-Amino-20(S)-CPT, 10-amino-20(S)-camptothecin]
Relative Potency T-1 Inhibition (topoisomerase I [2]): 2 | EC50 ([1]; 24 h): 1200 nM

CC[C@@]1(O)C(=O)OCc2c1cc1n(c2=O)Cc2cc3cc(Cl)ccc3nc2-1 [10-Chloro-20(S)-CPT, 10-chloro-20(S)-camptothecin]
EC50 ([1]; 24 h): 1770 nM

CC[C@@]1(O)C(=O)OCc2c1cc1n(c2=O)Cc2cc3cc(C)ccc3nc2-1 [10-Methyl-20(S)-CPT]
EC50 ([1]; 24 h): 3140 nM

CC[C@@]1(O)C(=O)OCc2c1cc1n(c2=O)Cc2cc3cc([N+](=O)[O-])ccc3nc2-1 [10-Nitro-20(S)-CPT]
EC50 ([1]; 24 h): 1750 nM

CC[C@@]1(O)C(=O)OCc2c1cc1n(c2=O)Cc2cc3ccc(N)cc3nc2-1 [11-Amino-20(S)-CPT]
T-1 Inhibition IC50 (topoisomerase I [3]): inactive | EC50 ([1]; 24 h): 23100 nM

CC[C@@]1(O)C(=O)OCc2c1cc1n(c2=O)Cc2cc3cccc(N)c3nc2-1 [12-Amino-20(S)-CPT]
T-1 Inhibition IC50 (topoisomerase I [3]): inactive | EC50 ([1]; 24 h): 22500 nM

CC[C@@]1(O)C(=O)OCc2c1cc1n(c2=O)Cc2cc3ccccc3nc2-1 [20(S)-CPT, 20(S)-camptothecin]
Relative Potency T-1 Inhibition (topoisomerase I [2]): 1 | EC50 ([1]; 24 h): 1550 nM

CC[C@@]1(OC(=O)CN)C(=O)OCc2c1cc1n(c2=O)Cc2cc3ccccc3nc2-1 [20-Glycinate-20(S)-CPT]
EC50 [1, 4]: 5100 nM
